Columns and labels:
Format in all cases: in vivo
[1] = system: barnyardgrass (Echinochloa crus-galli); experiment: Test B flooded paddy test; conditions: Echinochloa crus-galli, 250 g ai/ha, Flood; 0 to 100 scale where 0 is no effect and 100 is complete control; read-out: Barnyardgrass plant response rating
Summary of the method: (§1)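 2-leaf plants; pots flooded 3 cm over soil; cpd added to paddy water; depth held; greenhouse 13–15 d; visual rating vs controls, 0 = no effect, 100 = complete control.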

[2] = system: ducksalad (Heteranthera limosa); experiment: Test B flooded paddy test; conditions: Heteranthera limosa, 250 g ai/ha, Flood; 0 to 100 scale where 0 is no effect and 100 is complete control; read-out: Ducksalad plant response rating
Summary of the method: as §1

rice (Oryra sativa) = experiment: Test B flooded paddy test; conditions: Oryza sativa, 250 g ai/ha, Flood; 0 to 100 scale where 0 is no effect and 100 is complete control; read-out: Rice plant response rating
Summary of the method: as §1

[3] = system: sedge, umbrella (small-flower umbrella sedge, Cyperus difformis); experiment: Test B flooded paddy test; conditions: Cyperus difformis, 250 g ai/ha, Flood; 0 to 100 scale where 0 is no effect and 100 is complete control; read-out: Sedge, Umbrella plant response rating
Summary of the method: as §1

[4] = system: ryegrass, Italian (Italian ryegrass, Lolium multiflorum); experiment: Test A postemergence; conditions: Lolium multiflorum, post-emergence, 240 h
Summary of the method: (§2)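 In a loam soil and sand blend, planted seeds got a preemergence directed soil spray, and young plants at the one- to two-leaf stage, 2–10 cm high, got a postemergence application; ~10 d greenhouse hold; injury rated visually, 0 = none, 100 = complete control.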

[5] = system: ragweed (common ragweed, Ambrosia elatior); experiment: Test A postemergence; conditions: Ambrosia artemisiifolia, post-emergence, 240 h
Summary of the method: as §2

[6] = system: blackgrass (Alopecurus myosuroides); experiment: Test A postemergence; conditions: Alopecurus myosuroides, post-emergence, 240 h
Summary of the method: as §2

[7] = system: barnyardgrass (Echinochloa crus-galli); experiment: Test A postemergence; conditions: Echinochloa crus-galli, post-emergence, 240 h
Summary of the method: as §2

corn (Zea mays) = experiment: Test A postemergence; conditions: Zea mays, post-emergence, 240 h
Summary of the method: as §2

[8] = system: wheat (Triticum aestivum); experiment: Test A postemergence; conditions: Triticum aestivum, post-emergence, 240 h
Summary of the method: as §2

[9] = system: Galium (catchweed bedstraw, Galium aparine); experiment: Test A postemergence; conditions: Galium, post-emergence, 240 h
Summary of the method: as §2

[10] = system: pigweed (Amaranthus retroflexus); experiment: Test A postemergence; conditions: Amaranthus retroflexus, post-emergence, 240 h
Summary of the method: as §2

[11] = system: giant foxtail (Setaria faberii); experiment: Test A postemergence; conditions: Setaria faberi, post-emergence, 240 h
Summary of the method: as §2

Kochia (Kochia scoparia) [12] = experiment: Test A postemergence; conditions: Bassia scoparia, post-emergence, 240 h
Summary of the method: as §2

[13] = system: ryegrass, Italian (Italian ryegrass, Lolium multiflorum); experiment: Test A preemergence; conditions: Lolium multiflorum, pre-emergence, 240 h, 0 to 100 scale where 0 is no effect and 100 is complete control, read-out: Ryegrass, Italian plant response rating
Summary of the method: as §2

[14] = system: ragweed (common ragweed, Ambrosia elatior); experiment: Test A preemergence; conditions: Ambrosia artemisiifolia, pre-emergence, 240 h, 0 to 100 scale where 0 is no effect and 100 is complete control, read-out: Ragweed plant response rating
Summary of the method: as §2

[15] = system: barnyardgrass (Echinochloa crus-galli); experiment: Test A preemergence; conditions: Echinochloa crus-galli, pre-emergence, 240 h, Preemergence
Summary of the method: as §2

[16] = system: pigweed (Amaranthus retroflexus); experiment: Test A preemergence; conditions: Amaranthus retroflexus, pre-emergence, 240 h, 0 to 100 scale where 0 is no effect and 100 is complete control, read-out: Pigweed plant response rating
[17] = system: giant foxtail (Setaria faberii); experiment: Test A preemergence; conditions: Setaria faberi, pre-emergence, 240 h, Preemergence
Summary of the method: as §2

Kochia (Kochia scoparia) [18] = experiment: Test A preemergence; conditions: Bassia scoparia, pre-emergence, 240 h, 0 to 100 scale where 0 is no effect and 100 is complete control, read-out: Kochia plant response rating
Summary of the method: as §2

[19] = 125 g ai/ha, preemergence, approx. 10 d

Work on `COCc1ccccc1NC(=O)[C@H]1C(=O)N(C)C[C@@H]1c1cccc(C(F)(F)F)c1` (racemic) [Compound 1060] yielded a pest or weed control at 250 g/ha [1] of 75%, a pest or weed control at 250 g/ha [2] of 90% and a pest or weed control at 250 g/ha (rice (Oryra sativa)) of 20%. For the same compound, the pest or weed control at 250 g/ha [3] was 0%, the pest or weed control at 125 g/ha ([4]; 125 g ai/ha, postemergence, visual injury on 0 to 100 scale (0 no effect, 100 complete control), approx. 10 d, read-out: Ryegrass, Italian plant response rating) was 50% and the pest or weed control at 31 g/ha ([4]; Postemergence, 31 g ai/ha, visual injury after approx. 10 d, 0 to 100 scale, 0 no effect, 100 complete control, read-out: Plant response rating, Ryegrass, Italian) was 50%. For the same compound, the pest or weed control at 125 g/ha ([5]; 125 g ai/ha, postemergence, visual injury on 0 to 100 scale (0 no effect, 100 complete control), approx. 10 d, read-out: Ragweed plant response rating) was 30%, the pest or weed control at 31 g/ha ([5]; Postemergence, 31 g ai/ha, visual injury after approx. 10 d, 0 to 100 scale, 0 no effect, 100 complete control, read-out: Plant response rating, Ragweed) was 0% and the pest or weed control at 125 g/ha ([6]; 125 g ai/ha, postemergence, visual injury on 0 to 100 scale (0 no effect, 100 complete control), approx. 10 d, read-out: Blackgrass plant response rating) was 60%. It also gave a pest or weed control at 31 g/ha ([6]; Postemergence, 31 g ai/ha, visual injury after approx. 10 d, 0 to 100 scale, 0 no effect, 100 complete control, read-out: Plant response rating, Blackgrass) of 50%, a pest or weed control at 125 g/ha ([7]; 125 g ai/ha, postemergence, visual injury on 0 to 100 scale (0 no effect, 100 complete control), approx. 10 d, read-out: Barnyardgrass plant response rating) of 100% and a pest or weed control at 31 g/ha ([7]; Postemergence, 31 g ai/ha, visual injury after approx. 10 d, 0 to 100 scale, 0 no effect, 100 complete control, read-out: Plant response rating, Barnyardgrass) of 90%. It also gave a plant injury at 125 g/ha (corn (Zea mays); 125 g ai/ha, postemergence, visual injury on 0 to 100 scale (0 no effect, 100 complete control), approx. 10 d, read-out: Corn plant response rating) of 90%, a Corn plant response rating (crop injury, 0 = no effect, 100 = complete kill) at 31 g/ha (corn (Zea mays); Postemergence, 31 g ai/ha, visual injury after approx. 10 d, 0 to 100 scale, 0 no effect, 100 complete control) of 70% and a plant injury at 125 g/ha ([8]; 125 g ai/ha, postemergence, visual injury on 0 to 100 scale (0 no effect, 100 complete control), approx. 10 d, read-out: Wheat plant response rating) of 70%. It also gave a plant injury at 31 g/ha ([8]; Postemergence, 31 g ai/ha, visual injury after approx. 10 d, 0 to 100 scale, 0 no effect, 100 complete control, read-out: Plant response rating, Wheat) of 30%, a pest or weed control at 125 g/ha ([9]; 125 g ai/ha, postemergence, visual injury on 0 to 100 scale (0 no effect, 100 complete control), approx. 10 d, read-out: Galium plant response rating) of 40% and a pest or weed control at 31 g/ha ([9]; Postemergence, 31 g ai/ha, visual injury after approx. 10 d, 0 to 100 scale, 0 no effect, 100 complete control, read-out: Plant response rating, Galium) of 0%. It also gave a pest or weed control at 125 g/ha ([10]; 125 g ai/ha, postemergence, visual injury on 0 to 100 scale (0 no effect, 100 complete control), approx. 10 d, read-out: Pigweed plant response rating) of 0%, a pest or weed control at 31 g/ha ([10]; Postemergence, 31 g ai/ha, visual injury after approx. 10 d, 0 to 100 scale, 0 no effect, 100 complete control, read-out: Plant response rating, Pigweed) of 0% and a pest or weed control at 125 g/ha ([11]; 125 g ai/ha, postemergence, visual injury on 0 to 100 scale (0 no effect, 100 complete control), approx. 10 d, read-out: Foxtail, Giant plant response rating) of 90%. The pest or weed control at 31 g/ha ([11]; Postemergence, 31 g ai/ha, visual injury after approx. 10 d, 0 to 100 scale, 0 no effect, 100 complete control, read-out: Plant response rating, Foxtail, Giant) was 90%, the pest or weed control at 125 g/ha (Kochia (Kochia scoparia) [12]; 125 g ai/ha, postemergence, visual injury on 0 to 100 scale (0 no effect, 100 complete control), approx. 10 d, read-out: Kochia plant response rating) was 0% and the pest or weed control at 31 g/ha (Kochia (Kochia scoparia) [12]; Postemergence, 31 g ai/ha, visual injury after approx. 10 d, 0 to 100 scale, 0 no effect, 100 complete control, read-out: Plant response rating, Kochia) was 0%. For the same compound, the pest or weed control at 31 g/ha ([13]; 31 g ai/ha, Preemergence) was 50%, the pest or weed control at 125 g/ha [13, 19] was 60% and the pest or weed control at 31 g/ha ([14]; 31 g ai/ha, Preemergence) was 0%. The pest or weed control at 125 g/ha [14, 19] was 30%, the pest or weed control at 125 g/ha ([15]; 125 g ai/ha, visual injury rating after approximately 10 d, read-out: Barnyardgrass plant response rating (0 to 100 scale, 0 is no effect, 100 is complete control)) was 100% and the pest or weed control at 31 g/ha ([15]; 31 g ai/ha, 0 to 100 scale (0 no effect, 100 complete control), read-out: Plant response rating, Barnyardgrass) was 90%. For the same compound, the pest or weed control at 31 g/ha ([16]; 31 g ai/ha, Preemergence) was 0%, the pest or weed control at 125 g/ha [16, 19] was 30% and the pest or weed control at 125 g/ha ([17]; 125 g ai/ha, visual injury rating after approximately 10 d, read-out: Foxtail, Giant plant response rating (0 to 100 scale, 0 is no effect, 100 is complete control)) was 100%. The pest or weed control at 31 g/ha ([17]; 31 g ai/ha, 0 to 100 scale (0 no effect, 100 complete control), read-out: Plant response rating, Foxtail, Giant) was 90%, the pest or weed control at 31 g/ha (Kochia (Kochia scoparia) [18]; 31 g ai/ha, Preemergence) was 0% and the pest or weed control at 125 g/ha (Kochia (Kochia scoparia) [18]; [19]) was 0%.

Source: patent publication US12077503B2, “Substituted cyclic amides and their use as herbicides” (FMC CORPORATION, priority 2015, dated 2024)
